Three compounds from patent publication US20240262801A1, “COMPOUNDS HAVING 5-(2-FLUORO-6-HYDROXYPHENYL)-1,2,5-THIADIAZOLIDIN-3-ONE 1,1-DIOXIDE AS INHIBITORS OF PROTEIN KINASE PHOSPHATASE ENZYMES” (Ness Therapeutics, Inc., priority 2021, published 2024) can be followed below.

Like-named read-outs stand apart in the source and are kept apart here.

Assay [1] relates to B16F10 mouse melanoma cells. Description: Tumor cells B16F10 cellular growth IFNγ-induced inhibition assay (CellTiter-Glo). In kind it is cell-based. The settings on record: for IC50: B16-F10, 72 h, 3 days incubation; for inhibition at 100 µM: B16-F10, B16F10, 100 μM compound. In outline:
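Cells were seeded at 500/well in DMEM + 10% FBS and allowed to adhere overnight at 37° C, 5% CO2. Compounds at 1× final were added via medium with or without IFNγ (5 ng/ml in the dilution medium). After 3 days, CellTiter-Glo luminescence gave % growth inhibition versus the DMSO/IFNγ control, from which IC50 was derived.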

In the next assay the target is T1, GST-tagged PTPN2 protein (Homo sapiens, UniProt P17706).
T1 construct: purchased ActiveMotif 31592
T1 sequence (P17706 with tags, fused parts or gaps): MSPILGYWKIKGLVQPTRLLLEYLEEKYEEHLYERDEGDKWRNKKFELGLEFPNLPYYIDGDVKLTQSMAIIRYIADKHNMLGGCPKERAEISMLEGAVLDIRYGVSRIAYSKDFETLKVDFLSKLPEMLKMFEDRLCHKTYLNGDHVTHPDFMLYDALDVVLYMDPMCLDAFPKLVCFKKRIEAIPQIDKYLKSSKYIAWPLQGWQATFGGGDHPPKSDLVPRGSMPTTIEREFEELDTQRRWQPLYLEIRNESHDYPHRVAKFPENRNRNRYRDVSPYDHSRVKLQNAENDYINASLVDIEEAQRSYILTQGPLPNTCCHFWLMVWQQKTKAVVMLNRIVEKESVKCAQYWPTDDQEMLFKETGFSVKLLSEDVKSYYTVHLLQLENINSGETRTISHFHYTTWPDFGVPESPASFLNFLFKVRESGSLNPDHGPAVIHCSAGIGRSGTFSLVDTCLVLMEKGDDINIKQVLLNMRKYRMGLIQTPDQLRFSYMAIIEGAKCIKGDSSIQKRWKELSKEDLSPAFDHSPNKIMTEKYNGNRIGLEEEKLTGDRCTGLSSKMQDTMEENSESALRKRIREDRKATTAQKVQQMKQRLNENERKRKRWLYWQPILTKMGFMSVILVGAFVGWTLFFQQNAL
As to the kind of experiment: Primary assay of PTPN2 enzymatic activity inhibition (DiFMUP fluorescence). The assay is classed as biochemical. The settings on record: DiFMUP substrate 2 μM, 60 min at RT. In outline: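 Enzyme at 0.004 ng/μL final in 50 mM HEPES pH 7.2-7.4, 2 mM EDTA, 100 mM NaCl, BSA, 6 mM DTT; compounds preincubated 10 min at RT. DiFMUP added at 2 μM final, 60 min at RT, fluorescence read at ex 360/em 450 nm. IC50 calculated from % inhibition.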

Where [2] appears, read: B16F10, + IFNγ, read-out: IC50 + IFNγ.
[3] abbreviates: B16F10, no IFNγ, read-out: IC50 no IFNγ.
Setting [4] is: + IFNγ, read-out: % Growth Inhibition at 100 μM + IFNγ.
[5] abbreviates: no IFNγ, read-out: % Growth Inhibition at 100 μM no IFNγ.

With `O=C1CN(c2c(O)cc(-c3cccc(NC4CCN(S(=O)(=O)Cc5ccccc5)CC4)c3)cc2F)S(=O)(=O)N1` [Example 12, 5-(3′-{[1-(benzylsulfonyl)piperidin-4-yl]amino}-3-fluoro-5-hydroxybiphenyl-4-yl)-1,2,5-thiadiazolidin-3-one 1,1-dioxide], the 50% inhibitory concentration (IC50) – broadly, the concentration that gives 50% inhibition – in assay [1] (setting [2]) is no less than 100 µM; in assay [1] (setting [3]), no less than 100 µM; at GST-tagged PTPN2 protein, 100 to 500 nM. Besides, the inhibition at 100 µM in assay [1] (setting [4]) and in assay [1] (setting [5]) was 10 to 50% in each case.
Regarding `O=C1CN(c2c(O)cc(NC(=O)N[C@H]3CC[C@H](CO)CC3)cc2F)S(=O)(=O)N1` [Example 107, 1-[3-fluoro-5-hydroxy-4-(1,1,4-trioxo-1,2,5-thiadiazolidin-2-yl)phenyl]-3-[4-(hydroxymethyl)-cyclohexyl]urea], the IC50 in assay [1] (setting [2]) is 5 to 10 µM; in assay [1] (setting [3]) it was no less than 100 µM; at GST-tagged PTPN2 protein, less than 5 nM. The inhibition (in general, the percentage by which the read-out fell short of the control) at 100 µM in assay [1] (setting [4]) lay within 50 to 75%; in assay [1] (setting [5]) it was 10 to 50%.
Take `COc1cccc(-c2cc(O)c(N3CC(=O)NS3(=O)=O)c(F)c2)c1` [Example 1, 5-(3-fluoro-5-hydroxy-3′-methoxybiphenyl-4-yl)-1,2,5-thiadiazolidin-3-one 1,1-dioxide]: the concentration for half-maximal inhibition (IC50) in assay [1] (setting [2]) was no less than 100 µM; in assay [1] (setting [3]), no less than 100 µM; against GST-tagged PTPN2 protein, 100 to 500 nM. Moreover, the inhibition at 100 µM in assay [1] (setting [4]) and in assay [1] (setting [5]) was 10 to 50% throughout.
